# Test results as given in article PMC13195121, “A plasmid toolbox for the easy autodisplay of recombinant proteins and its optimization” (Communications Biology, 2026).
# Structures can show the parent of a compound that is named as a salt.
# Tests used:
# [1] = target: T1, β-Gluc (β-glucosidase BglA LYTH) (Caldicellulosiruptor saccharolyticus, UniProt P10482); test: whole-cell absorbance assay at […] nm, surface-displaying E. coli; format: cell-based; conditions: 5 mM pNPG; 0.1 M Na-citrate pH 6; 55 °C
# T1 construct: His6 tag and fXa site
# laccase CotA = target: T2, laccase CotA (Heyndrickxia coagulans, UniProt A0AAN0WB15); test: whole-cell absorbance assay at […] nm, surface-displaying P. putida; format: cell-based; conditions: 0.1 M Na-acetate pH 5.6; 30 °C; cells grown with CuCl2
# T2 construct: gene SB48_HM08orf01352; N-terminal His6 tag and fXa site; codon-optimized gene
# T2 sequence (A0AAN0WB15 1-522): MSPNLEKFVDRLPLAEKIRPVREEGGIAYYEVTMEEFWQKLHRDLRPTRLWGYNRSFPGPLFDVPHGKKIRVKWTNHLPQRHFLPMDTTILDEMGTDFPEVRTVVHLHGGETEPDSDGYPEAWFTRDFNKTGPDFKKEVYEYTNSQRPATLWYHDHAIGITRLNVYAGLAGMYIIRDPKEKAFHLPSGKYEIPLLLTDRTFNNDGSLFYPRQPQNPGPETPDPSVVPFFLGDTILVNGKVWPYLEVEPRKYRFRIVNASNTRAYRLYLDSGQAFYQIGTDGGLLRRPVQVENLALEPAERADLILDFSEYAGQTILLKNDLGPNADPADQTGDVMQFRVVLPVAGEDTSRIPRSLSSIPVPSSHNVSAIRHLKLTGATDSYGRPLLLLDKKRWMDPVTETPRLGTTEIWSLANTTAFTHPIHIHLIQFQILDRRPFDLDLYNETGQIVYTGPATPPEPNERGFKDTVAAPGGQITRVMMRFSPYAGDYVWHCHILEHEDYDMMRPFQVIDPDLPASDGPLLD
# T1 sequence (P10482 whole entry): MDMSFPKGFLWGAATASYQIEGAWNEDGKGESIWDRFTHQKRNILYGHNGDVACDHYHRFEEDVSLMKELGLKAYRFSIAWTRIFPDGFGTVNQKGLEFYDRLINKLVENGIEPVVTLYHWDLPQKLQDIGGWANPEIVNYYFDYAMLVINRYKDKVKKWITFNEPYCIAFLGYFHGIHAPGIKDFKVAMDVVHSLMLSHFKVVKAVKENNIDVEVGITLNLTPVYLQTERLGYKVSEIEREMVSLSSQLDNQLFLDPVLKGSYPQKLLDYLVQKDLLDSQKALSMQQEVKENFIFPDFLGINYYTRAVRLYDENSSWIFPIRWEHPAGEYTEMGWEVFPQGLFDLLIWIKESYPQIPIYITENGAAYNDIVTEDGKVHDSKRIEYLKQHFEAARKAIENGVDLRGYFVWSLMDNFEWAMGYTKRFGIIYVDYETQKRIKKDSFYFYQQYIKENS
compound,measurement,setting,value
O=[N+]([O-])c1ccc(O[C@@H]2O[C@H](CO)[C@@H](O)[C@H](O)[C@H]2O)cc1 [4-nitrophenyl-β-D-glucopyranoside],"whole-cell absorbance assay at 405 nm, surface-displaying E. coli",[1],activity assay with 4-nitrophenyl-β-D-glucopyranoside (pNPG) as substrate
"CCn1c(=NN=c2sc3cc(S(=O)(=O)O)ccc3n2CC)sc2cc(S(=O)(=O)O)ccc21 [ABTS, 2,2’-Azino-bis [3-ethylbenzothiazoline-6-sulfonic acid]-diammonium salt]","whole-cell absorbance assay at 420 nm, surface-displaying P. putida",laccase CotA,The substrate ABTS is converted by the laccase to ABTS^•+
